Data: patent US6410029B1, “2-methoxyestradiol-induced apoptosis in cancer cells” (Board of Regents, The University of Texas System, priority 1996, dated 2002)

Experiments:
[1] = system: H460 cells (wild-type p53); experiment: Growth assay, H460 cell line; type: cell-based, human
Experimental: (§1) Non-small cell lung cancer cell lines H460 (wild-type p53), H358 (p53 deleted), and […] (p53 mutant) were obtained from Drs. Adi Gazdar and John Minna. A549 (wild-type p53) was obtained from ATCC (Rockville, Md.). All cell lines were grown in RPMI 1640 media supplemented with 5% heat inactivated fetal bovine serum and maintained at 5% CO2. All the studies were done when the cells were 70% confluent.
(§2) For cell growth measurements, 5×10^4 cells were plated in each well of six well plates. Control and treated cells were trypsinized and counted using a hemocytotometer. Studies were performed in triplicate.
The inventors tested the effect of 2-MeOE2 treatment on the growth characteristics of four different human lung cancer cell lines differing in their p53 status: H3.58 (p53 deleted), H322 (p53 mutated), H460 (wild-type p53), A549 (wild-type p53).
The cells were treated with 5 μM of 2-MeOE2 or 16-epiestriol (another metabolite of estrogen) and growth of the cells was monitored for five days (FIG. 1).

[2] = system: H460 cells; experiment: Apoptosis by FACS analysis, H460 cells
Experimental: (§6) Control and treated cells were collected by trypsinization, washed in PBS and fixed in 70% ethanol overnight. The next day cells were rehydrated in PBS for 30 min, centrifuged, and resuspended in PBS. For DNA analysis, propidium iodide (Sigma) was added at 50 μg/ml, and the cells were incubated in the presence of RNase at 15 μg/ml for 30 min at 37° C. Flow cytometric analysis was carried out in a fluorescence-activated cell sorter (Coulter Epics Elite).
(§7) Cells also were stained with biotinylated UTP for TUNEL assay to monitor the DNA fragmentation. H460 cells were grown in chamber slides and treated with the drugs and TdT staining was performed as described in Materials and Methods.

[3] = system: H358 cells (p53 deleted); experiment: Growth assay, H358 cell line; type: cell-based, human
Experimental: as §1, §2
(§3) The inventors tested the effect of 2-MeOE2 treatment on the growth characteristics of four different human lung cancer cell lines differing in their p53 status: H3.58 (p53 deleted), H322 (p53 mutated), H460 (wild-type p53), A549 (wild-type p53). […]

[4] = system: p53 mRNA; experiment: Northern blot analysis of p53 mRNA; details: H460, 48 h after treatment
Description: Total RNA was isolated from the subconfluent cultures using the guanidinium thiocyanate method (Chomczynsky and Sacchi, 1987). Twenty micrograms of total RNA was electrophoresed in 1.4% agarose/MOPS formaldehyde gel, transferred to nylon membrane and hybridized to a radiolabeled p53 cDNA probe as described previously (Mukhopadyay and Roth, 1993).

[5] = system: mutated p53 protein; experiment: Western blot analysis of p53 protein, H322 cell line; type: cell-based, human
Experimental: (§4) Control and drug treated cells were washed in cold PBS, lysed in Laemmli's sample buffer, and subjected to western blot analysis as described previously (Mukhopadhyay et al., 1995). Blots were probed with Pab 1801 anti-p53 monoclonal antibody (Oncogene Sciences, Uniondale, N.Y.). The blot was further probed with anti-WAF1 monoclonal antibody (p21).
(§5) Blots were washed in Tris-buffered saline containing 0.1% Tween 20, incubated with horse radish peroxidase conjugated to secondary antibody and specific immunocomplex was detected by enhanced chemiluminescence technique according to the manufacturer's directions (Amersham, Arlington, Ill.). Blots were reprobed with anti-actin monoclonal antibody (Amersham) to show the equal protein loading.

[6] = system: H460 cells; experiment: TUNEL assay (TdT staining); type: cell-based, human; details: H460 cells grown in chamber slides
Experimental: Terminal deoxynucleotidyl transferase mediated dUTP-biotin nick end labeling (TUNEL) assay was performed as described previously (Fujiwara et al., 1994). […] Cells were incubated in TdT buffer (30 mM Tris Hcl, pH 7.2; 140 mM cacodylate, 1 mM cobalt chloride) and incubated with biotinylated dUTP (Boehringer Mannheim, Indianapolis, Ind.) and 100 U/ml TdT enzyme (Bethesda Research Laboratory) for 1 h at 37° C. The avidin-biotin complex was detected using the Vectastain Elite kit (Vector Laboratory, Burlingame, Calif.), by the diaminobenzidine-H2O2 method.

[7] = system: normal human skin fibroblasts; details: even at a 100 μm concentration; cited from earlier work
[8] = system: endothelial cells; details: read-out: half-maximal inhibitory concentration (IC50); cited from earlier work
[9] = system: p53 DNA binding activity; experiment: Electrophoretic mobility shift assay (EMSA), p53 DNA binding; type: cell-based, human; details: H460 cells, 5 μm for 48 h
Experimental: Electrophoretic mobility shift assays (EMSA) were performed using nuclear extract prepared from the H460 cell line. Nuclear extracts were prepared from untreated control and 2-MeOE2 treated cells. Cells were washed in ice cold PBS and scraped into 0.5 ml nuclei harvesting buffer (10 mM HEPES, pH 7.9; 10 mM KCl; 0.1 mM ETA, 1 mM dithiothretol (DTT), 0.1% NP-40; 0.5 mM phenyl methyl-sulfonyl fluoride; […]; 0.5 mg/ml benzamidine). After 30 min of incubation on ice, lysates were centrifuged for 1 min at 4° C. The nuclear pellet was resuspended in nuclear harvesting buffer containing 0.4 M NaCl and incubated on ice for 1 h. The nuclear extracts were microfuged at 12,000 rpm for 30 min at 4° C. and supernatant was stored at −70° C.
To perform electrophoretic mobility shift assays (EMSA), 10 μg of nuclear extract was mixed gently with 0.1 mg of poly (dl-dC) and 1 ng of ^32P-end labeled p53 consensus binding oligonucleotide in binding buffer (25 mM HEPES; pH 7.9; 0.5 mMEDTA; 0.5 mMDTT; 1% NP-40; 5% glycerol; 50 mM NaCl) in total reaction volume 20 μl. One microliter of (1 μg) p53 monoclonal antibody DO1 (Santa Cruz Biotechnology Inc., Calif.) was added to the DNA after binding and incubated for another 15 min to show the supershift. DNA-protein complexes were resolved in native 4.5% polyacrylamide gels. […]

[10] = system: breast cancer cell line MCF-7; details: cited from earlier work
[11] = system: A549 cells (wild-type p53); experiment: Growth assay, A549 cell line; type: cell-based, human
[12] = system: H322 cells (p53 mutated); experiment: Apoptosis by FACS analysis, H322 cells; details: mutated cell line, after 48 h of 5 μm treatment
Experimental: as §6, §7

[13] = system: p53 protein in normal bronchial epithelial cell lines; experiment: Western blot analysis of p53 protein, normal bronchial epithelial cell lines; type: cell-based
Experimental: as §4, §5

[14] = system: A549 cells; experiment: Apoptosis by FACS analysis, A549 cells
Experimental: as §6, §7

[15] = system: solid tumors; details: cited from earlier work
[16] = system: lung cancer cell lines; experiment: Cell cycle analysis by flow cytometry; type: cell-based, human; details: PI labeling, FACScan, 48 h treatment
Experimental: It has been shown that induction of p21 causes p53-mediated G1 arrest and induces apoptosis. […] The cells were labeled with PI and cell cycle was analyzed by FACScan.

[17] = system: wild-type p53 protein; experiment: Western blot analysis of p53 protein, wild-type p53 lung cancer cell lines; type: cell-based, human
Experimental: as §4, §5

[18] = system: endothelial cells; details: cited from earlier work
[19] = system: p21WAF1/CIP1 protein; experiment: Western blot with WAF1 monoclonal antibody (p21); type: cell-based, human
Experimental: as §4, §5

[20] = system: colchicine binding site of the tubulin filaments; details: MCF-7 cell line; cited from earlier work
[21] = system: H322 cells (p53 mutated); experiment: Growth assay, H322 cell line; type: cell-based, human
Experimental: as §1, §2, §3

[22] = system: normal bronchial epithelium; experiment: Response of normal bronchial epithelium to 2-MeOE2 treatment; type: cell-based
[23] = dose response studies, after 48 h, lung cancer cell lines

COc1cc2c(cc1O)CC[C@@H]1[C@@H]2CC[C@]2(C)[C@@H](O)CC[C@@H]12 [2-MeOE2, 2-methoxyestradiol]
growth inhibitory effect ([1]; 5 μM, growth monitored for five days, H460 (wild-type p53)): significant growth inhibitory effect | cell death during the growth assay ([1]; after 48 h, H460, crystal violet staining): significant increase in cell death | peak representing apoptotic cells (PI, FACScan) ([2]; H460 cell line): A peak representing apoptotic cells appeared | apoptosis (DNA strand breaks, UTP-labeled biotin / FITC-avidin) ([2]; H460 cells): had undergone apoptosis | growth inhibitory effect ([3]; 5 μM, growth monitored for five days, H358 (p53 deleted)): virtually no growth inhibitory effect | cell death during the growth assay ([3]; after 48 h, H358, crystal violet staining): only two dead cells | p53 mRNA levels [4]: no change | level of the mutated p53 protein [5]: no increase | DNA fragmentation (TUNEL, TdT staining) [6]: many apoptotic bodies | effect on normal human skin fibroblasts [7]: no effect | IC50 [8]: 150 nM | p53 DNA binding activity in nuclear extract vs untreated control [9]: three-fold increase | cytotoxic effect [10]: cytotoxic effect | growth inhibitory effect ([11]; 5 μM, growth monitored for five days, A549 (wild-type p53)): significant growth inhibitory effect | cell death during the growth assay ([11]; after 48 h, A549, crystal violet staining): significant increase in cell death | apoptotic cell death [12]: no effect | level of p53 protein [13]: no increase | peak representing apoptotic cells (PI, FACScan) ([14]; A549 cell line): A peak representing apoptotic cells appeared | apoptosis (DNA strand breaks, UTP-labeled biotin / FITC-avidin) ([14]; A549 cells): had undergone apoptosis | apoptotic cell death ([14]; A549 cells, after 48 h of 5 μm treatment, FACS analysis): ~48% | general cytotoxicity in vivo ([15]; in vivo studies): not associated with general cytotoxicity | capillary formation in solid tumors ([15]; oral administration, mice): potent inhibition | growth of solid tumors ([15]; oral administration, mice): reduced growth | G1 arrest (cell cycle analysis) [16]: no evidence of G1 arrest | concentration that stimulated p53 to a maximum level [17, 23]: 5 µM | increase of wild-type p53 protein levels ([17]; during 48 h of treatment, lung cancer cell lines carrying wild-type p53): 6- to 8 fold | angiogenesis in vitro [18]: inhibits | endothelial cell migration ([18]; in vitro): inhibits | increase in p21 protein expression ([19]; A549 cell line): 3-5 fold | increase in p21 protein expression ([19]; H460 cell line): 3-5 fold | concentration that stimulated p21 to a maximum level [19, 23]: 5 µM | binding to tubulin [20]: bind to the colchicine binding site of the tubulin filaments | growth inhibitory effect ([21]; 5 μM, growth monitored for five days, H322 (p53 mutated)): virtually no growth inhibitory effect | cell death during the growth assay ([21]; after 48 h, H322, crystal violet staining): only two dead cells | changes in response to treatment (p53 increase, apoptosis) [22]: did not show the observed changes

C[C@]12CC[C@@H]3c4ccc(O)cc4CC[C@H]3[C@@H]1C[C@H](O)[C@@H]2O [epistriol, 16-epiestriol, reference compound]
DNA fragmentation (TUNEL, TdT staining) [6]: little DNA fragmentation | G1 arrest (cell cycle analysis) [16]: no evidence of G1 arrest
